Measurements reported in US12168006B2, “Cancer therapy by degrading dual MEK signaling” (The Board of Trustees of the University of Illinois, priority 2017, dated 2024).
pIC50: −log10 of the molar value. “Also recorded” adds a separate entry of the source.

Legend:
[1] = test system: Lyn; settings: Ba/F3 cells; cited from earlier work
[2] = test system: AKT; settings: cited from earlier work
[3] = test system: H3122 cells; assay: Long term experiments with EML4-ALK cell line; settings: for cytotoxic effect / cell proliferation: 8 days, PAC-1 2 μM, trametinib 5 nM
Experimental: H3122 cells were seeded at 10,000 cells per well in 6 well plates and allowed to adhere overnight. […] Media was refreshed every 3-4 days with new compounds. At the end of the incubation period, cells were fixed 10% trichloroacetic acid, stained with SRB, imaged using GelDoc XR, and absorbance at 510 nm read using SpectraMax M3 (Molecular Devices) plate reader.

[4] = test system: caspase-3/-7; assay: Caspase-3/-7 activity assay; type: cell-based, human
Experimental: H3122 cells were seeded at 4,000 cells per well and allowed to adhere overnight. […] 10 μM raptinal was used as the positive control throughout the experiment. […] Plates were pre-incubated at 37° C. for 30 minutes in the SpectraMax M3 (Molecular Devices) plate reader and then read for 30 minutes at 3-minute intervals. Slopes for each well were calculated and averaged over six technical replicates. Activity is normalized to the maximal and minimal activity observed within the assay.

[5] = biological target: MEK2 (MAP2K2) (Homo sapiens, UniProt P36507); settings: at 1 μM; cited from earlier work
Sequence of MEK2 (MAP2K2) (P36507 whole entry, species assumed): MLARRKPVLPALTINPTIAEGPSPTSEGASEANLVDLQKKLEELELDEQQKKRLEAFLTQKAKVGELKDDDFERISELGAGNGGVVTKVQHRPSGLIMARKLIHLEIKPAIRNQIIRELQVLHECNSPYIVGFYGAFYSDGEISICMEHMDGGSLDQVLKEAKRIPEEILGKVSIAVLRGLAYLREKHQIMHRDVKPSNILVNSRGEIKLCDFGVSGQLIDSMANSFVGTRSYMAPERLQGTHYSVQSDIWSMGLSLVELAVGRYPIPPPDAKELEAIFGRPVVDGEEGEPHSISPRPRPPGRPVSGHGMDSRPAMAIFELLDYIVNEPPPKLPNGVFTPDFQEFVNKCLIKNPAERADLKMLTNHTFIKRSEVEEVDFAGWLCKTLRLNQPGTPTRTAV

[6] = test system: CaMKII; settings: cited from earlier work
[7] = test system: CK2; settings: cited from earlier work
[8] = biological target: PKCδ (Homo sapiens, UniProt Q05655); settings: cited from earlier work
Sequence of PKCδ (Q05655 whole entry): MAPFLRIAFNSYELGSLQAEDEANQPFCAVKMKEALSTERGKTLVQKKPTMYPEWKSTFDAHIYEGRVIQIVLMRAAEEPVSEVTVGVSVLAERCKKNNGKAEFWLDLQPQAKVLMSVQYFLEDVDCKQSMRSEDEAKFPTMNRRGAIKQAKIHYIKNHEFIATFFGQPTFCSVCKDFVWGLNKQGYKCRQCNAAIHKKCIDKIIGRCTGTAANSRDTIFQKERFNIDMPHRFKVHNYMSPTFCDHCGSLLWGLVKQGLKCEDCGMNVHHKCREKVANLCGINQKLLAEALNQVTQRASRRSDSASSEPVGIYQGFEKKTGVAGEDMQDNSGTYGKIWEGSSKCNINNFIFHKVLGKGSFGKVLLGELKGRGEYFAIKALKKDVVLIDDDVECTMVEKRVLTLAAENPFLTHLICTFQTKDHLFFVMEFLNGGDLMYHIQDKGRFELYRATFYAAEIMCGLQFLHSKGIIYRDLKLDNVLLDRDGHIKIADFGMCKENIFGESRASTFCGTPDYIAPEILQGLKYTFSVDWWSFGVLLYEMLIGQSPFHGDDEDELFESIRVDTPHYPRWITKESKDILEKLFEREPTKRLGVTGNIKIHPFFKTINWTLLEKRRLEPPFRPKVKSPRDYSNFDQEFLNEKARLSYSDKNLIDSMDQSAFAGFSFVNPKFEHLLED

[9] = biological target: Fyn (Homo sapiens, UniProt P06241); settings: at 1 μM; cited from earlier work
Sequence of Fyn (P06241 whole entry, species assumed): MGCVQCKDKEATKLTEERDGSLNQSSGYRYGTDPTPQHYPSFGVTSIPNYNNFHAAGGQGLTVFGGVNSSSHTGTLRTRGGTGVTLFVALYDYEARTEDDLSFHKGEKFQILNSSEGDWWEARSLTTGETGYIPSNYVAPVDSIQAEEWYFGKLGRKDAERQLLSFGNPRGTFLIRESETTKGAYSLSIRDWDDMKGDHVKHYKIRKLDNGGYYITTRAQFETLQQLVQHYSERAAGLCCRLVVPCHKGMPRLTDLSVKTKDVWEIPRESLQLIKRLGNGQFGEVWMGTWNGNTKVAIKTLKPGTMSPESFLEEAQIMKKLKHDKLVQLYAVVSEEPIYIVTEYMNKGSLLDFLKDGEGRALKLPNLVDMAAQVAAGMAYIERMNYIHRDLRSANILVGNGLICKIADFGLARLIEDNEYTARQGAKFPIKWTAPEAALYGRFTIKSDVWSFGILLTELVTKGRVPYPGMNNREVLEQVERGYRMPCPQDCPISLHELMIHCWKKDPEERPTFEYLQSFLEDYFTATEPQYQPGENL

[10] = biological target: ERK1/2 (MAPK1) (Homo sapiens, UniProt P28482); settings: cited from earlier work
Sequence of ERK1/2 (MAPK1) (P28482 2-360 limits assumed): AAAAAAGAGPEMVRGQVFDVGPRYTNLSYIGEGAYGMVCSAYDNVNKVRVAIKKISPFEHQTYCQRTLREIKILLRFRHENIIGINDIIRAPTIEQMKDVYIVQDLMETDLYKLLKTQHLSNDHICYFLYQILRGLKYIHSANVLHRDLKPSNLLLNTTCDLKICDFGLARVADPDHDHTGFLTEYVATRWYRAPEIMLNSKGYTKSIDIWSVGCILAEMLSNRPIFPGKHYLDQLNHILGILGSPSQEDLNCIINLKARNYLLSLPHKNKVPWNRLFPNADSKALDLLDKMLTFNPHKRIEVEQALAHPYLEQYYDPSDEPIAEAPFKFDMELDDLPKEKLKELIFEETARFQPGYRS

[11] = biological target: CDK1 (Homo sapiens, UniProt P06493); settings: at 1 μM; cited from earlier work
Sequence of CDK1 (P06493 whole entry, species assumed): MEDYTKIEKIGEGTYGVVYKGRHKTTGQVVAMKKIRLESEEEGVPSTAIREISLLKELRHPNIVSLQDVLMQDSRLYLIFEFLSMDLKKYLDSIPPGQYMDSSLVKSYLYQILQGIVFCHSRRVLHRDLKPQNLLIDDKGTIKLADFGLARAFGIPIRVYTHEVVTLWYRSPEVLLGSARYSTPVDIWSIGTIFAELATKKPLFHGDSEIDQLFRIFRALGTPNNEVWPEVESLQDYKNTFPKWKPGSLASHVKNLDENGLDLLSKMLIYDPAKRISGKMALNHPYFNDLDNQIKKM
Sequence of CDK1 (P14635 whole entry partner, species assumed): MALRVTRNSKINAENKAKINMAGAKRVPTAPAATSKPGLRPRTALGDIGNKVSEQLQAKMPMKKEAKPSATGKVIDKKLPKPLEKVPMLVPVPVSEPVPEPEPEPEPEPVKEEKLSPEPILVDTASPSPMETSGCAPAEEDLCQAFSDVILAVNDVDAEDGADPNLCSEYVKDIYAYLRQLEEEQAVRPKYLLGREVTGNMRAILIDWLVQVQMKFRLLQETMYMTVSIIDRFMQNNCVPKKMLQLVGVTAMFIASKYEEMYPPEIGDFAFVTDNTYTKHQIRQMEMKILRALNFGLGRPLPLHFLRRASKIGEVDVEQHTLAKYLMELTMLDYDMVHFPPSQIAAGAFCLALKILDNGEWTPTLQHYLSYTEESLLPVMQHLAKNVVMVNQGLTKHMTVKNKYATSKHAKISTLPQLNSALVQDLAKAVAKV

[12] = biological target: DYRK1A (Homo sapiens, UniProt Q13627); settings: at 1 μM; cited from earlier work
[13] = biological target: PKCζ (Homo sapiens, UniProt Q05513); settings: cited from earlier work
Sequence of PKCζ (Q05513 whole entry): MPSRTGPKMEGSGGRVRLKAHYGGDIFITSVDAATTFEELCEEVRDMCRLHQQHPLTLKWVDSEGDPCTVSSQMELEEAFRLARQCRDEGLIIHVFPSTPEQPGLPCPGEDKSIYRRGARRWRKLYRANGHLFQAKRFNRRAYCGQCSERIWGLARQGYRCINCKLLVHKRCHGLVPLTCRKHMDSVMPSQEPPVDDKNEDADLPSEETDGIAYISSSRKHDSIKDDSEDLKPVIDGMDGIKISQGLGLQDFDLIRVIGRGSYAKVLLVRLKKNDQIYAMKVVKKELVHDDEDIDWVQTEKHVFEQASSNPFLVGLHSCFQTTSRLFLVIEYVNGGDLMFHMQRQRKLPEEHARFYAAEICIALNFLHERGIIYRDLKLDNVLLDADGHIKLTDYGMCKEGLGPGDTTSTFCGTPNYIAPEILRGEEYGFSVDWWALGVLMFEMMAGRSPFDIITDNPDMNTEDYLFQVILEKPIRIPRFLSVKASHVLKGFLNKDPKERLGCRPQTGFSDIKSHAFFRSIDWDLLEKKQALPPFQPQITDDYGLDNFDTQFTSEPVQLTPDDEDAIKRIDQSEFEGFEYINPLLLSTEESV

[14] = test system: PKA; settings: cited from earlier work
[15] = test system: H1975 cells; assay: Long term experiments with EGFR^T790M cell lines
Experimental: (§1) In 12 well plates, PC-9 GR or H1975 cells were seeded at 2,000 cells per well and allowed to adhere overnight.

[16] = test system: PC-9 GR cells; assay: Long term experiments with EGFR^T790M cell lines
Experimental: as §1

[17] = test system: BRAF^V600E melanoma, EGFR^T790M, and EML4-ALK NSCLCs; assay: Delay of acquired resistance, summary of long term experiments; type: cell-based, human; settings: added to the kinase inhibitor
Experimental: (§2) This assay was performed as described previously. Briefly, 100-250 cells were seeded and allowed to adhere overnight. […] Media was refreshed with new compounds added every 3-4 days.

[18] = test system: MEK1 and MEK2 kinases; assay: Immunoblotting of procaspase-3, MEK1 and MEK2 levels; type: cell-based, human; settings: Q-VD-OPh 25 μM added concurrently; 48 hours; A375, PC-9 GR, H3122
Experimental: Cells were lysed using RIPA buffer containing phosphatase (BioVision) and protease inhibitor cocktail (Calbiochem). Protein concentration was determined using the BCA assay (Pierce). Cell lysates containing 8-20 μg of protein were loaded into each lane of 4-20% gradient gels (BioRad) and ran for SDS-PAGE. Proteins were transferred onto PDVF membrane (Millipore) for Western blot analysis. Blots were blocked with BSA for one hour followed by incubation with primary antibody overnight (manufacturer's recommended dilutions). Secondary antibody was incubated for one hour. Blots were then imaged with a ChemiDoc Touch after incubation with SuperSignal West Pico Solution following manufacturer's protocols.

[19] = test system: A375, PC-9 GR, H3122, K-562 cells; assay: Q-VD-OPh protection by flow cytometry; type: cell-based, human; settings: Q-VD-OPh 25 μM added concurrently; 48 hours
Experimental: A375 (BRAF^V600E) cells were seeded with 70,000 cells/well in 12-well plates and allowed to adhere overnight. The next day, indicated concentrations of PAC-1, vemurafenib, trametinib, and/or Q-VD-OPh were added and cells were incubated at 37° C. for 48 hours. […] The next day, they were incubated with PAC-1, ceritinib, and/or Q-VD-OPh for 48 hours. K-562 cells were seeded with 35,000 cells/well in 12-well plates.

[20] = test system: A375 cells; assay: Long term experiments in BRAF^V600E cell lines; type: cell-based, human; settings: continuous treatment
Experimental: as §2

[21] = test system: PC-9 GR and H1975 cells; assay: Cell viability assay (SRB); type: cell-based, human; settings: 5-day incubation
Experimental: Final concentration of DMSO in each well is 0.5%. At the end of 5 days, viability was assessed by the sulforhodamine B (SRB) assay sulforhodamine B (SRB) assay. Briefly, 100 μL of 10% trichloroacetic acid (TCA) was added in each well and the plate was incubated for at least 1 hour at 4° C. After the 4° C. incubation, the plate was washed with water and allowed to dry for at least 1 hour at room temperature. 100 μL of SRB dye (1% w/v) was added to each well and incubated for 30 minutes at room temperature. At the end of the 30 minutes incubation, the plate was washed with 1% acetic acid solution and allowed to dry at room temperature. Finally, 200 μL of Tris solution (pH>10) was added to each well to dissolve the SRB dye. The absorbance of each well was read with a SpectraMax M3 plate reader (Molecular Devices) at 510 nm.

[22] = H1975 NSCLC cells, PAC-1 5 μM, up to 48 h
[23] = PC-9 GR NSCLC cells, PAC-1 5 μM, up to 48 h

Cc1cc(Nc2ncc(Cl)c(Nc3ccccc3S(=O)(=O)C(C)C)n2)c(OC(C)C)cc1C1CCNCC1 [Ceritinib]
pIC50 [1]: 5.64
pIC50 [2]: < 5.00
cytotoxic effect / cell proliferation [3]: effective in inhibiting cell proliferation
resistant clones ([3]; 20 days of treatment): Resistant clones were visible
resistant clones ([3]; 32 days of treatment): dramatic increase

Cc1ccc(NC(=O)c2ccc(CN3CCN(C)CC3)cc2)cc1Nc1nccc(-c2cccnc2)n1 [Imatinib]
caspase-3 activity ([4]; K-562 cells, PAC-1 7.5 μM): negligible single-agent activity
% Inhibition of MEK2 (MAP2K2) [5]: 5.9% at 1 μM
Inhibition of CaMKII (in words) [6]: Not observed
Inhibition of CK2 (in words) [7]: Not observed
Inhibition of PKCδ (in words) [8]: Not observed
% Inhibition of Fyn [9]: 29.6% at 1 μM
Inhibition of ERK1/2 (MAPK1) (in words) [10]: Not observed
% Inhibition of CDK1 [11]: 1.8% at 1 μM
% Inhibition of DYRK1A [12]: 2.2% at 1 μM
Inhibition of PKCζ (in words) [13]: Not observed
Inhibition of PKA (in words) [14]: Not observed

C=CC(=O)Nc1cc(Nc2nccc(-c3cn(C)c4ccccc34)n2)c(OC)cc1N(C)CCN(C)C [Osimertinib]
caspase-3 activity [4, 22]: Negligible increases
caspase-3 activity [4, 23]: Negligible increases
cytotoxic effect / cell proliferation [15]: very effective
resistant clones [15]: clearly visible
resistant clones [16]: clearly visible; also recorded: resistant clones were visible; also recorded: dramatic increase
cytotoxic effect / cell proliferation ([16]; 8 days, PAC-1 2 μM, osimertinib 30 nM, trametinib 5 nM): very effective; also recorded: effective in inhibiting cell proliferation

C=CCc1cccc(/C=N/NC(=O)CN2CCN(Cc3ccccc3)CC2)c1O [PAC-1]
caspase-3 activity [4, 22]: Negligible increases
caspase-3 activity ([4]; K-562 cells, PAC-1 7.5 μM): negligible single-agent activity
caspase-3 activity [4, 23]: Negligible increases
concentration effective in delaying acquired resistance to vemurafenib, osimertinib, and ceritinib [17]: 1 to 2 µM

CC(C)[C@H](NC(=O)c1ccc2ccccc2n1)C(=O)N[C@@H](CC(=O)O)C(=O)COc1c(F)cccc1F [Q-VD-OPh]
MEK1/2 cleavage in cells treated with PAC-1/drug combinations [18]: attenuated
apoptotic cell death in cells treated with PAC-1/drug combinations [19]: protection

CCCS(=O)(=O)Nc1ccc(F)c(C(=O)c2c[nH]c3ncc(-c4ccc(Cl)cc4)cc23)c1F [Vemurafenib]
time at which resistant colonies were first seen [20]: 20 days

COc1cc2ncnc(Nc3ccc(F)c(Cl)c3)c2cc1OCCCN1CCOCC1 [gefitinib]
activity in PC-9 GR and H1975 cells (FIG. 7A) [21]: inactive

CC(=O)Nc1cccc(-n2c(=O)n(C3CC3)c(=O)c3c(Nc4ccc(I)cc4F)n(C)c(=O)c(C)c32)c1 [trametinib]
cytotoxic effect / cell proliferation [3]: minimal cytotoxic effect
